This is an account of results in PubChem BioAssay AID1259407 (Chemical Carcinogenesis Research Information System (CCRIS), 2018).

The data set deals with CCRIS mutagenicity, Ames/micronucleus/aberration tests. As to the kind of experiment: CCRIS mutagenicity studies.
The mark [1] stands for this setting: Test System: AMES SALMONELLA TYPHIMURIUM, Strain/Indicator: TA100, Metabolic Activation: NONE, Method: PREINCUBATION
Setting [2] is: Test System: AMES SALMONELLA TYPHIMURIUM, Strain/Indicator: TA98, Metabolic Activation: NONE, Method: STANDARD PLATE.
Setting [3] is: Test System: AMES SALMONELLA TYPHIMURIUM, Strain/Indicator: TA100, Metabolic Activation: RAT, LIVER, S-9, AROCLOR 1254, Method: STANDARD PLATE.

Molecules are shown by their SMILES. Active and inactive are the calls of the source. How the calls were made is not given here.

As to `Nc1nc2ccccc2[nH]1`, the mutagenic call reads like this: (Test System: AMES SALMONELLA TYPHIMURIUM, Strain/Indicator: TA97, Metabolic Activation: HAMSTER, LIVER, S-9, AROCLOR 1254 (10%), Method: PREINCUBATION) “inactive; negative”; (Test System: AMES SALMONELLA TYPHIMURIUM, Strain/Indicator: TA97, Metabolic Activation: HAMSTER, LIVER, S-9, AROCLOR 1254 (30%), Method: PREINCUBATION) “inactive; negative”; (Test System: AMES SALMONELLA TYPHIMURIUM, Strain/Indicator: TA97, Metabolic Activation: NONE, Method: PREINCUBATION) “inactive; negative”; (Test System: AMES SALMONELLA TYPHIMURIUM, Strain/Indicator: TA97, Metabolic Activation: RAT, LIVER, S-9, AROCLOR 1254 (10%), Method: PREINCUBATION) “inactive; negative”; (Test System: AMES SALMONELLA TYPHIMURIUM, Strain/Indicator: TA97, Metabolic Activation: RAT, LIVER, S-9, AROCLOR 1254 (30%), Method: PREINCUBATION) “inactive; negative”; (Test System: AMES SALMONELLA TYPHIMURIUM, Strain/Indicator: TA98, Metabolic Activation: HAMSTER, LIVER, S-9, AROCLOR 1254 (10%), Method: PREINCUBATION) “inactive; negative”. Besides, the mutagenic call (Test System: AMES SALMONELLA TYPHIMURIUM, Strain/Indicator: TA98, Metabolic Activation: HAMSTER, LIVER, S-9, AROCLOR 1254 (30%), Method: PREINCUBATION) was “inactive; negative”; the mutagenic call (Test System: AMES SALMONELLA TYPHIMURIUM, Strain/Indicator: TA98, Metabolic Activation: NONE, Method: PREINCUBATION) was “inactive; negative”; the mutagenic call (Test System: AMES SALMONELLA TYPHIMURIUM, Strain/Indicator: TA98, Metabolic Activation: RAT, LIVER, S-9, AROCLOR 1254 (10 OR 30%), Method: PREINCUBATION) is “inactive; negative”; the mutagenic call (Test System: AMES SALMONELLA TYPHIMURIUM, Strain/Indicator: TA98, Metabolic Activation: RAT, LIVER, S-9, AROCLOR 1254, Method: PREINCUBATION) was “active; positive”; the mutagenic call (Test System: AMES SALMONELLA TYPHIMURIUM, Strain/Indicator: TA100, Metabolic Activation: HAMSTER, LIVER, S-9, AROCLOR 1254 (10%), Method: PREINCUBATION) is “inactive; negative”; the mutagenic call (Test System: AMES SALMONELLA TYPHIMURIUM, Strain/Indicator: TA100, Metabolic Activation: HAMSTER, LIVER, S-9, AROCLOR 1254 (30%), Method: PREINCUBATION) was “inactive; negative”. The mutagenic call is, setting by setting: under setting [1], “inactive; negative”; (Test System: AMES SALMONELLA TYPHIMURIUM, Strain/Indicator: TA100, Metabolic Activation: RAT, LIVER, S-9, AROCLOR 1254 (5%), Method: PREINCUBATION) “inactive; negative”; (Test System: AMES SALMONELLA TYPHIMURIUM, Strain/Indicator: TA100, Metabolic Activation: RAT, LIVER, S-9, AROCLOR 1254 (10 OR 30%), Method: PREINCUBATION) “inactive; negative”; (Test System: AMES SALMONELLA TYPHIMURIUM, Strain/Indicator: TA100, Metabolic Activation: RAT, LIVER, S-9, AROCLOR 1254, Method: PREINCUBATION) “inactive; negative”; (Test System: AMES SALMONELLA TYPHIMURIUM, Strain/Indicator: TA1535, Metabolic Activation: HAMSTER, LIVER, S-9, AROCLOR 1254 (10%), Method: PREINCUBATION) “inactive; negative”; (Test System: AMES SALMONELLA TYPHIMURIUM, Strain/Indicator: TA1535, Metabolic Activation: HAMSTER, LIVER, S-9, AROCLOR 1254 (30%), Method: PREINCUBATION) “inactive; negative”. The mutagenic call was “inactive; negative” (Test System: AMES SALMONELLA TYPHIMURIUM, Strain/Indicator: TA1535, Metabolic Activation: NONE, Method: PREINCUBATION); “inactive; negative” (Test System: AMES SALMONELLA TYPHIMURIUM, Strain/Indicator: TA1535, Metabolic Activation: RAT, LIVER, S-9, AROCLOR 1254 (10 OR 30%), Method: PREINCUBATION); “inactive; negative” (Test System: AMES SALMONELLA TYPHIMURIUM, Strain/Indicator: TA1537, Metabolic Activation: HAMSTER, LIVER, S-9, AROCLOR 1254 (10%), Method: PREINCUBATION); “inactive; negative” (Test System: AMES SALMONELLA TYPHIMURIUM, Strain/Indicator: TA1537, Metabolic Activation: HAMSTER, LIVER, S-9, AROCLOR 1254 (30%), Method: PREINCUBATION); “inactive; negative” (Test System: AMES SALMONELLA TYPHIMURIUM, Strain/Indicator: TA1537, Metabolic Activation: NONE, Method: PREINCUBATION); “inactive; negative” (Test System: AMES SALMONELLA TYPHIMURIUM, Strain/Indicator: TA1537, Metabolic Activation: RAT, LIVER, S-9, AROCLOR 1254 (10 OR 30%), Method: PREINCUBATION).

For the molecule `COc1ccc(N/C=C/C2=[N+](C)c3ccccc3C2(C)C)c(OC)c1`, the mutagenic call runs as follows: (Test System: Ames Salmonella typhimurium, Strain/Indicator: TA98, Metabolic Activation: None, Method: Preincubation) “inactive; negative”; (Test System: Ames Salmonella typhimurium, Strain/Indicator: TA98, Metabolic Activation: Rat, Liver, S-9, Aroclor 1254, Method: Preincubation) “inactive; negative”; (Test System: Ames Salmonella typhimurium, Strain/Indicator: TA100, Metabolic Activation: None, Method: Preincubation) “inactive; negative”; (Test System: Ames Salmonella typhimurium, Strain/Indicator: TA100, Metabolic Activation: Rat, Liver, S-9, Aroclor 1254, Method: Preincubation) “inactive; negative”; (Test System: Ames Salmonella typhimurium, Strain/Indicator: TA102, Metabolic Activation: None, Method: Preincubation) “inactive; negative”; (Test System: Ames Salmonella typhimurium, Strain/Indicator: TA102, Metabolic Activation: Rat, Liver, S-9, Aroclor 1254, Method: Preincubation) “inactive; negative”. The mutagenic call reads like this: (Test System: Ames Salmonella typhimurium, Strain/Indicator: TA1535, Metabolic Activation: None, Method: Preincubation) “inactive; negative”; (Test System: Ames Salmonella typhimurium, Strain/Indicator: TA1535, Metabolic Activation: Rat, Liver, S-9, Aroclor 1254, Method: Preincubation) “inactive; negative”.

For `Cc1ccccc1OCC(O)CNCCOc1ccc(C(N)=O)cc1` (stereo not given), the mutagenic call is, setting by setting: under setting [2], “inactive; negative”; (Test System: AMES SALMONELLA TYPHIMURIUM, Strain/Indicator: TA98, Metabolic Activation: RAT, LIVER, S-9, AROCLOR 1254, Method: STANDARD PLATE) “inactive; negative”; (Test System: AMES SALMONELLA TYPHIMURIUM, Strain/Indicator: TA100, Metabolic Activation: NONE, Method: STANDARD PLATE) “inactive; negative”; under setting [3], “inactive; negative”.

Regarding `O=C1c2ccccc2C(=O)N1SC(Cl)(Cl)Cl`, the mutagenic call under setting [2] was “inactive; negative”; the mutagenic call under setting [1] is “active; positive”; the mutagenic call under setting [3] was “active; positive”; the mutagenic call (Test System: AMES SALMONELLA TYPHIMURIUM, Strain/Indicator: TA100, Metabolic Activation: RAT, LIVER, S-9, Method: STANDARD PLATE) was “active; positive”; the mutagenic call (Test System: AMES SALMONELLA TYPHIMURIUM, Strain/Indicator: TA100, Metabolic Activation: S-9 MIX, Method: STANDARD PLATE) was “active; positive”; the mutagenic call (Test System: AMES SALMONELLA TYPHIMURIUM, Strain/Indicator: TA102, Metabolic Activation: NONE, Method: STANDARD PLATE) is “inactive; negative”. In addition, the mutagenic call reads like this: (Test System: AMES SALMONELLA TYPHIMURIUM, Strain/Indicator: TA104, Metabolic Activation: NONE, Method: STANDARD PLATE) “active; positive”; (Test System: AMES SALMONELLA TYPHIMURIUM, Strain/Indicator: TA104, Metabolic Activation: RAT, LIVER, S-9, PHENOBARBITAL, Method: STANDARD PLATE) “active; positive”; (Test System: AMES SALMONELLA TYPHIMURIUM, Strain/Indicator: TA1535, Metabolic Activation: NONE, Method: STANDARD PLATE) “active; positive”; (Test System: AMES SALMONELLA TYPHIMURIUM, Strain/Indicator: TA1535, Metabolic Activation: RAT, LIVER, S-9, AROCLOR 1254, Method: STANDARD PLATE) “active; positive”; (Test System: E. COLI, Strain/Indicator: WP2, Metabolic Activation: NONE, Method: STANDARD PLATE) “active; positive”; (Test System: E. COLI, Strain/Indicator: WP2, Metabolic Activation: RAT, LIVER, S-9, Method: STANDARD PLATE) “active; positive”. Moreover, the mutagenic call is, setting by setting: (Test System: E. COLI, Strain/Indicator: WP2 UVRA, Metabolic Activation: NONE, Method: STANDARD PLATE) “active; positive”; (Test System: E. COLI, Strain/Indicator: WP2 UVRA, Metabolic Activation: RAT, LIVER, S-9, AROCLOR 1254, Method: STANDARD PLATE) “active; positive”.
